Literature values, collected in article PMC13335693, “Discovery of a Potent Fluorescence Polarization Probe for Identifying USP1 Allosteric Inhibitors” (Advanced Science, 2026).

Conditions: stated for compound 4 as known drawback; no reference given

half-life in mouse liver microsomes (MLM): 15 min
SMILES: Cc1cnc(-c2ccccc2C(C)C)nc1NCc1ccc(-n2ccnn2)cc1 [ML323]
